Laboratory results as given in patent US6599529B1, “Modified release multiple-units compositions of non-steroid anti-inflammatory drug substances (NSAIDs)” (Nycomed Danmark A/S, priority 1997, dated 2003).

Legend:
[1] = in water and 0.1 N HCl at room temperature; cited from earlier work
[2] = cited from earlier work
[3] = Solubility in 0.1 N HCl / water; format: physicochemical

Row | solubility ([3]; at a pH corresponding to 0.1 N HCl, room temperature) | solubility ([3]; in 0.1 N HCl (aqueous solution of 0.1 N hydrochloric acid)) [mg/100 ml] | Structure (SMILES) | solubility (in words) [1] | pKa value [2]
1 |  |  | COc1ccc2c(c1)c(CC(=O)O)c(C)n2C(=O)c1ccc(Cl)cc1 [indometacin] | practically insoluble | 
2 |  |  | CC(=O)Oc1ccccc1C(=O)O [acetylsalicylic acid] | practically insoluble | 
3 | less than 1 mg/100 ml | < 1 | CN1C(C(=O)Nc2ccccn2)=C(O)c2sc(Cl)cc2S1(=O)=O [lornoxicam] |  | about 4.7
